Test results reported in US9102630B2, “Crystals of salts of phenylalanine derivatives” (AJINOMOTO CO., INC., priority 2010, dated 2015).
≈ marks a conversion by molar mass, not a printed value.

Assays:
Format in all cases: physicochemical
[1] = Determination of solubility in water (HPLC of supernatant); settings: 25° C., 15 min, 50 mg suspended in 10 mL distilled water
Procedure: After 50 mg each of samples of the crystals prepared according to the foregoing methods and the crystal of the compound (I) in its free state was suspended in 10 mL of distilled water and then each suspension was stirred at room temperature for 15 minutes, the supernatant of each suspension was collected, then passed through a disposable filter of 0.2 μm for HPLC, 1 to 3.5 g of each filtered supernatant was dispensed, the volume thereof was increased up to 10 mL with a 90% aqueous solution of acetonitrile and finally the content of the compound (I) present in the supernatant was determined according to the HPLC while using the following conditions.
(Conditions for the HPLC Analysis)
(§1) Device Used: LC-10A Series (available from Shimadzu Corporation);
(§2) Column: Inertsil (available from GL Science Company) ODS-24.5 mm×150 mm, 5 μm, 40° C.;
(§3) Flow Rate: 1 mL/min, UV at 254 nm, 10 μL Injection;
(§4) Eluting Solution A: 0.1% TFA (trifluoroacetic acid)/water;
(§5) Eluting Solution B: 0.1% TFA/MeCN;
(§6) Gradient Program: 0→25 min (B: 0→90%).

[2] = Determination of storage stability (accelerated test, HPLC); settings: 40° C., 75% RH, 2M (two months)
Procedure: The crystal of a salt of the compound represented by the formula (I) was inspected for the storage stability, when it was stored at 40° C., 75% RH over two months, according to the following method. The results observed for preferred crystals, i.e., forms Cl1, Br1, Br2, Ms1 and Ms3 crystals, among others, are summarized in the following Table 2. The data listed in Table 2 indicate that the crystals of the compound (I) in their preferred crystalline forms according to the present invention are particularly excellent in their storage stability.
The storage stability of each sample, which had been stored in a depository at 40° C., 75% RH over two months, was determined according to the HPLC analysis method.
More specifically, about 25 mg each of the crystals of the compound represented by the formula (I) was dispensed into a 50 mL volume measuring flask and then dissolved in a 90% aqueous solution of acetonitrile containing 0.1% TFA and the storage stability of the resulting solution was determined by the HPLC analysis under the following conditions.
(Conditions for HPLC Analysis)
as §1, §2, §3, §4, §5, §6

[3] = Determination of adsorption-desorption of water vapor; settings: isothermal water vapor adsorption-desorption, 25° C.
Procedure: The crystals of the present invention were inspected for their water vapor adsorption-desorption ability using BELLSORP-aqua3 available from Nippon Bell Co., Ltd. More specifically, about 300 mg of the compound represented by the formula (I) was dispensed into a measuring tube, dried at 50° C. for 30 minutes and the amount of water vapor adsorbed on or desorbed from the crystal was determined under the following conditions:
Adsorption Temperature: 25° C.; Equilibration Time: 500 sec; Saturated Vapor Pressure: 3.169 kPa;
Excessively Introduced Amount: 0.2 or 1.0 cm^3 (STP)/g; Tolerance for Increase or Decrease of Adsorbed Amount: 0.2 or 1.0 cm^3 (STP)/g.

COC(=O)[C@H](Cc1ccc(-n2c(=O)c3cc(N(C)C)ccc3n(C)c2=O)cc1)NC(=O)c1c(Cl)cccc1Cl [Form S1]
Solubility in Water ([1]; listed as Sulfate (Form S1)): 104 µg/mL (≈ 183 µM)

COC(=O)[C@H](Cc1ccc(-n2c(=O)c3cc(N(C)C)ccc3n(C)c2=O)cc1)NC(=O)c1c(Cl)cccc1Cl [Form Cl3]
Solubility in Water ([1]; listed as Hydrochloride (Form Cl3)): 102 µg/mL (≈ 179 µM)

COC(=O)[C@H](Cc1ccc(-n2c(=O)c3cc(N(C)C)ccc3n(C)c2=O)cc1)NC(=O)c1c(Cl)cccc1Cl [Form N2]
Solubility in Water ([1]; listed as Nitrate (Form N2)): 128 µg/mL (≈ 225 µM)

COC(=O)[C@H](Cc1ccc(-n2c(=O)c3cc(N(C)C)ccc3n(C)c2=O)cc1)NC(=O)c1c(Cl)cccc1Cl [Form N1]
Solubility in Water ([1]; listed as Nitrate (Form N1)): 110 µg/mL (≈ 193 µM)

COC(=O)[C@H](Cc1ccc(-n2c(=O)c3cc(N(C)C)ccc3n(C)c2=O)cc1)NC(=O)c1c(Cl)cccc1Cl [Form Cl5]
Solubility in Water ([1]; listed as Hydrochloride (Form Cl5)): 91 µg/mL (≈ 160 µM)

COC(=O)[C@H](Cc1ccc(-n2c(=O)c3cc(N(C)C)ccc3n(C)c2=O)cc1)NC(=O)c1c(Cl)cccc1Cl [Form Ts1]
Solubility in Water ([1]; listed as Toluene-sulfonate (Form Ts1)): 97 µg/mL (≈ 170 µM)

COC(=O)[C@H](Cc1ccc(-n2c(=O)c3cc(N(C)C)ccc3n(C)c2=O)cc1)NC(=O)c1c(Cl)cccc1Cl [Form Ms1]
Accelerated Test, Stability: initial sample still in existence [2]: 99.06% of the initial sample was still in existence. | change in crystalline state at a high humidity [3]: only a very slight change in its crystalline state | Solubility in Water ([1]; listed as Methane-sulfonate (Form Ms1)): 102 µg/mL (≈ 179 µM)

COC(=O)[C@H](Cc1ccc(-n2c(=O)c3cc(N(C)C)ccc3n(C)c2=O)cc1)NC(=O)c1c(Cl)cccc1Cl [Form Ms3]
Accelerated Test, Stability: initial sample still in existence [2]: 97.41% of the initial sample was still in existence and | Solubility in Water ([1]; listed as Methane-sulfonate (Form Ms3)): 109 µg/mL (≈ 191 µM)

COC(=O)[C@H](Cc1ccc(-n2c(=O)c3cc(N(C)C)ccc3n(C)c2=O)cc1)NC(=O)c1c(Cl)cccc1Cl [Form S3]
Solubility in Water ([1]; listed as Sulfate (Form S3)): 119 µg/mL (≈ 209 µM)

COC(=O)[C@H](Cc1ccc(-n2c(=O)c3cc(N(C)C)ccc3n(C)c2=O)cc1)NC(=O)c1c(Cl)cccc1Cl [Form Br2]
Accelerated Test, Stability: initial sample still in existence [2]: 98.13% of the initial sample was still in existence and | change in crystalline state at a high humidity [3]: only a very slight change in its crystalline state | Solubility in Water ([1]; listed as HBr salt (Form Br2)): 123 µg/mL

COC(=O)[C@H](Cc1ccc(-n2c(=O)c3cc(N(C)C)ccc3n(C)c2=O)cc1)NC(=O)c1c(Cl)cccc1Cl [Free State]
Solubility in Water [1]: 0.12 µg/mL (≈ 0.211 µM)

COC(=O)[C@H](Cc1ccc(-n2c(=O)c3cc(N(C)C)ccc3n(C)c2=O)cc1)NC(=O)c1c(Cl)cccc1Cl [Form S2]
Solubility in Water ([1]; listed as Sulfate (Form S2)): 129 µg/mL (≈ 227 µM)

COC(=O)[C@H](Cc1ccc(-n2c(=O)c3cc(N(C)C)ccc3n(C)c2=O)cc1)NC(=O)c1c(Cl)cccc1Cl [Form Br1]
Accelerated Test, Stability: initial sample still in existence [2]: 99.05% of the initial sample was still in existence. | Solubility in Water ([1]; listed as HBr salt (Form Br1)): 120 µg/mL

COC(=O)[C@H](Cc1ccc(-n2c(=O)c3cc(N(C)C)ccc3n(C)c2=O)cc1)NC(=O)c1c(Cl)cccc1Cl [Form Cl1]
Accelerated Test, Stability: initial sample still in existence [2]: 99.03% of the initial sample was still in existence. | change in crystalline state at a high humidity [3]: only a very slight change in its crystalline state | Solubility in Water ([1]; listed as Hydrochloride (Form Cl1)): 122 µg/mL (≈ 214 µM)

COC(=O)[C@H](Cc1ccc(-n2c(=O)c3cc(N(C)C)ccc3n(C)c2=O)cc1)NC(=O)c1c(Cl)cccc1Cl [Form Ms4]
Solubility in Water ([1]; listed as Methane-sulfonate (Form Ms4)): 94 µg/mL (≈ 165 µM)

COC(=O)[C@H](Cc1ccc(-n2c(=O)c3cc(N(C)C)ccc3n(C)c2=O)cc1)NC(=O)c1c(Cl)cccc1Cl [Form Cl2]
Solubility in Water ([1]; listed as Hydrochloride (Form Cl2)): 101 µg/mL (≈ 177 µM)

COC(=O)[C@H](Cc1ccc(-n2c(=O)c3cc(N(C)C)ccc3n(C)c2=O)cc1)NC(=O)c1c(Cl)cccc1Cl [Form Ms2]
Solubility in Water ([1]; listed as Methane-sulfonate (Form Ms2)): 115 µg/mL (≈ 202 µM)
